In ChEMBL document CHEMBL1287692, “Structure-based design, synthesis and A-site rRNA co-crystal complexes of novel amphiphilic aminoglycoside antibiotics with new binding modes: a synergistic hydrophobic effect against resistant bacteria” (2010):
Values after ≈ are worked out from the molar mass of the structure shown.

Assays:
Assay type in all cases: functional
Escherichia coli [1] = test: Antibacterial activity against Escherichia coli ATCC 25922
Staphylococcus aureus [2] = test: Antibacterial activity against Staphylococcus aureus ATCC 13709
Escherichia coli [3] = test: Antibacterial activity against Escherichia coli 0157:H07
Escherichia coli [4] = test: Antibacterial activity against vancomycin-, ciprofloxacin-, gentamicin-sensitive Escherichia coli 1269640
Escherichia coli [5] = test: Antibacterial activity against vancomycin-, ciprofloxacin-, gentamicin-resistant Escherichia coli 1269620
Escherichia coli [6] = test: Antibacterial activity against vancomycin-, ciprofloxacin-, gentamicin-resistant Escherichia coli 1269621
Escherichia coli [7] = test: Antibacterial activity against vancomycin-, ciprofloxacin-, gentamicin-resistant Escherichia coli 1269652
Escherichia coli [8] = test: Antibacterial activity against vancomycin-, ciprofloxacin-, gentamicin-resistant Escherichia coli 1269653
Staphylococcus aureus [9] = test: Antibacterial activity against Staphylococcus aureus ATCC […]
Staphylococcus aureus [10] = test: Antibacterial activity against vancomycin-, ciprofloxacin-, gentamicin-resistant Staphylococcus aureus 1269615
Staphylococcus aureus [11] = test: Antibacterial activity against vancomycin-intermediate and ciprofloxacin-, gentamicin-resistant Staphylococcus aureus 1269616
Staphylococcus aureus [12] = test: Antibacterial activity against vancomycin-, ciprofloxacin-, gentamicin-resistant Staphylococcus aureus 1269617
Staphylococcus aureus [13] = test: Antibacterial activity against vancomycin-intermediate and ciprofloxacin-, gentamicin-resistant Staphylococcus aureus 1269618
Staphylococcus aureus [14] = test: Antibacterial activity against vancomycin-sensitive and oxymycin-, ciprofloxacin-, gentamicin-resistant Staphylococcus aureus 9269619
Staphylococcus aureus [15] = test: Antibacterial activity against oxymycin-sensitive Staphylococcus aureus 1269669
Staphylococcus aureus [16] = test: Antibacterial activity against oxymycin-sensitive Staphylococcus aureus 1269670
Staphylococcus capitis = test: Antibacterial activity against Staphylococcus capitis 1269682
[17] = tested on: Staphylococcus epidermidis; test: Antibacterial activity against Staphylococcus epidermidis 1269663
[18] = tested on: Staphylococcus epidermidis; test: Antibacterial activity against oxymycin-, gentamicin-, levofloxacin-resistant Staphylococcus epidermidis 1269675
[19] = tested on: Staphylococcus epidermidis; test: Antibacterial activity against oxymycin-, gentamicin-, levofloxacin-resistant Staphylococcus epidermidis 1269676
[20] = tested on: Staphylococcus epidermidis; test: Antibacterial activity against oxymycin and gentamicin-resistant Staphylococcus epidermidis 1269677
[21] = tested on: Staphylococcus epidermidis; test: Antibacterial activity against oxymycin-, gentamicin-, levofloxacin-resistant Staphylococcus epidermidis 1269680
Staphylococcus warneri = test: Antibacterial activity against Staphylococcus warneri 1269686

SMILES | MIC (Escherichia coli [1]) [µg/mL] | MIC (Staphylococcus aureus [2]) [µg/mL] | MIC (Escherichia coli [3]) [µg/mL] | MIC (Escherichia coli [4]) [µg/mL] | MIC (Escherichia coli [5]) [µg/mL] | MIC (Escherichia coli [6]) [µg/mL] | MIC (Escherichia coli [7]) [µg/mL] | MIC (Escherichia coli [8]) [µg/mL] | MIC (Staphylococcus aureus [9]) [µg/mL] | MIC (Staphylococcus aureus [10]) [µg/mL] | MIC (Staphylococcus aureus [11]) [µg/mL] | MIC (Staphylococcus aureus [12]) [µg/mL] | MIC (Staphylococcus aureus [13]) [µg/mL] | MIC (Staphylococcus aureus [14]) [µg/mL] | MIC (Staphylococcus aureus [15]) [µg/mL] | MIC (Staphylococcus aureus [16]) [µg/mL] | MIC (Staphylococcus capitis) [µg/mL] | MIC [17] [µg/mL] | MIC [18] [µg/mL] | MIC [19] [µg/mL] | also measured
NCC[C@H](O)C(=O)N[C@@H]1C[C@H](N)[C@@H](O[C@H]2O[C@H](CO)[C@@H](O)[C@H](O)[C@H]2N)[C@H](O[C@@H]2O[C@H](CO)[C@@H](O[C@H]3O[C@@H](CN)[C@@H](O)[C@H](O)[C@H]3N)[C@H]2O)[C@H]1O | 8 (≈ 11.2 µM) | 1.3 (≈ 1.81 µM) | 8 (≈ 11.2 µM) | 16 (≈ 22.3 µM) | 8 (≈ 11.2 µM) | 8 (≈ 11.2 µM) | 32 (≈ 44.6 µM) | 8 (≈ 11.2 µM) | 4 (≈ 5.58 µM) | > 128 | > 128 | > 128 | > 128 | > 128 | 4 (≈ 5.58 µM) | 4 (≈ 5.58 µM) | 0.5 (≈ 0.698 µM) | 1 (≈ 1.4 µM) | 64 (≈ 89.3 µM) | 0.5 (≈ 0.698 µM) | MIC [20]: 16 µg/mL (≈ 22.3 µM); MIC [21]: 1 µg/mL (≈ 1.4 µM); MIC (Staphylococcus warneri): 0.25 µg/mL (≈ 0.349 µM)
NC[C@@H]1O[C@H](O[C@H]2[C@@H](O)[C@H](O[C@@H]3[C@@H](O)[C@H](N)C[C@H](N)[C@H]3O[C@H]3O[C@H](CO)CC[C@H]3N)O[C@@H]2CO)[C@H](N)[C@@H](O)[C@@H]1O | 20 (≈ 34.3 µM) | 5 (≈ 8.57 µM) |  |  |  |  |  |  |  |  |  |  |  |  |  |  |  |  |  |  | 
NCC[C@H](O)C(=O)N[C@@H]1C[C@H](N)[C@@H](O[C@H]2O[C@H](CN)[C@@H](O)[C@H](O)[C@H]2N)[C@H](O[C@@H]2O[C@H](CO)[C@@H](O[C@H]3O[C@@H](CN)[C@@H](O)[C@H](O)[C@H]3N)[C@H]2O)[C@H]1O | 2.5 (≈ 3.49 µM) | 2.5 (≈ 3.49 µM) |  |  |  |  |  |  |  |  |  |  |  |  |  |  |  |  |  |  | 
NCC[C@@H](O)C(=O)N[C@H]1C[C@H](N)[C@@H](O[C@H]2O[C@H](CO)[C@@H](O)[C@H](O)[C@H]2N)[C@@H](O[C@H]2O[C@H](CO)[C@@H](O[C@H]3O[C@@H](CN)[C@@H](O)[C@H](O)[C@H]3N)[C@H]2OCCNCCc2ccccc2)[C@H]1O | 2 (≈ 2.31 µM) | 0.6 (≈ 0.694 µM) | 1 (≈ 1.16 µM) | 4 (≈ 4.63 µM) | 1 (≈ 1.16 µM) | 2 (≈ 2.31 µM) | 8 (≈ 9.26 µM) | 2 (≈ 2.31 µM) | 0.25 (≈ 0.289 µM) | 64 (≈ 74.1 µM) | 128 (≈ 148 µM) | 32 (≈ 37 µM) | 128 (≈ 148 µM) | > 128 | < 0.12 | < 0.12 | < 0.12 | < 0.12 | 16 (≈ 18.5 µM) | < 0.12 | MIC [20]: < 0.12 µg/mL; MIC [21]: < 0.12 µg/mL; MIC (Staphylococcus warneri): < 0.12 µg/mL
NC[C@@H]1O[C@H](O[C@H]2[C@@H](OCCNCCc3ccccc3)[C@@H](O[C@H]3[C@@H](O)[C@@H](N)C[C@@H](N)[C@H]3O[C@H]3O[C@H](CO)CC[C@H]3N)O[C@@H]2CO)[C@H](N)[C@@H](O)[C@@H]1O | 40 (≈ 54.7 µM) | 1 (≈ 1.37 µM) |  |  |  |  |  |  |  |  |  |  |  |  |  |  |  |  |  |  | 
NCC[C@H](O)C(=O)N[C@@H]1C[C@H](N)[C@@H](O[C@H]2O[C@H](CO)CC[C@H]2N)[C@H](O[C@@H]2O[C@H](CO)[C@@H](O[C@H]3O[C@@H](CN)[C@@H](O)[C@H](O)[C@H]3N)[C@H]2OCCNCCc2ccccc2)[C@H]1O | 8 (≈ 9.62 µM) | 0.6 (≈ 0.721 µM) | 1 (≈ 1.2 µM) | 8 (≈ 9.62 µM) | 4 (≈ 4.81 µM) | 4 (≈ 4.81 µM) | 16 (≈ 19.2 µM) | 8 (≈ 9.62 µM) | > 0.12 | 0.25 (≈ 0.3 µM) | 0.5 (≈ 0.601 µM) | 0.25 (≈ 0.3 µM) | 0.5 (≈ 0.601 µM) | 1 (≈ 1.2 µM) | 0.25 (≈ 0.3 µM) | 0.25 (≈ 0.3 µM) | < 0.12 | < 0.12 | < 0.12 | < 0.12 | MIC [20]: < 0.12 µg/mL; MIC [21]: < 0.12 µg/mL; MIC (Staphylococcus warneri): < 0.12 µg/mL
NC[C@@H]1O[C@H](O[C@H]2[C@@H](OCCNCCc3ccccc3)[C@H](O[C@@H]3[C@@H](O)[C@H](N)C[C@H](N)[C@H]3O[C@H]3O[C@H](CO)[C@@H](O)[C@H](O)[C@H]3N)O[C@@H]2CO)[C@H](N)[C@@H](O)[C@@H]1O | 3 (≈ 3.93 µM) | 0.3 (≈ 0.393 µM) |  |  |  |  |  |  |  |  |  |  |  |  |  |  |  |  |  |  | 
NCC[C@H](O)C(=O)N[C@@H]1C[C@H](N)[C@@H](O[C@H]2O[C@H](CN)[C@@H](O)[C@H](O)[C@H]2O)[C@H](O)[C@H]1O[C@H]1O[C@H](CO)[C@@H](O)[C@H](N)[C@H]1O [AMIKACIN] | 2 (≈ 3.42 µM) |  | 1 (≈ 1.71 µM) | 8 (≈ 13.7 µM) | 2 (≈ 3.42 µM) | 2 (≈ 3.42 µM) | 64 (≈ 109 µM) | 8 (≈ 13.7 µM) | 2 (≈ 3.42 µM) | 16 (≈ 27.3 µM) | 16 (≈ 27.3 µM) | 8 (≈ 13.7 µM) | 16 (≈ 27.3 µM) | 16 (≈ 27.3 µM) | 2 (≈ 3.42 µM) | 1 (≈ 1.71 µM) | 0.5 (≈ 0.854 µM) | 0.8 (≈ 1.37 µM) | 8 (≈ 13.7 µM) | 4 (≈ 6.83 µM) | MIC [20]: 4 µg/mL (≈ 6.83 µM); MIC [21]: 8 µg/mL (≈ 13.7 µM); MIC (Staphylococcus warneri): < 0.25 µg/mL
NC[C@@H]1O[C@H](O[C@H]2[C@@H](O)[C@H](O[C@@H]3[C@@H](O)[C@H](N)C[C@H](N)[C@H]3O[C@H]3O[C@H](CN)[C@@H](O)[C@H](O)[C@H]3N)O[C@@H]2CO)[C@H](N)[C@@H](O)[C@@H]1O [FRAMYCETIN] | 3 (≈ 4.88 µM) | 1 (≈ 1.63 µM) |  |  |  |  |  |  |  |  |  |  |  |  |  |  |  |  |  |  | 
CN[C@@H]1[C@@H](O)[C@@H](O[C@@H]2[C@@H](O)[C@H](O[C@H]3O[C@H]([C@@H](C)NC)CC[C@H]3N)[C@@H](N)C[C@H]2N)OC[C@]1(C)O [GENTAMICIN C1] | 1 (≈ 2.09 µM) |  | 0.5 (≈ 1.05 µM) | 4 (≈ 8.38 µM) | 64 (≈ 134 µM) | 64 (≈ 134 µM) | > 128 | > 128 | 0.5 (≈ 1.05 µM) | 32 (≈ 67 µM) | 64 (≈ 134 µM) | 32 (≈ 67 µM) | 64 (≈ 134 µM) | 128 (≈ 268 µM) | 0.25 (≈ 0.523 µM) | 0.25 (≈ 0.523 µM) | 0.12 (≈ 0.251 µM) | < 0.12 | 32 (≈ 67 µM) | 32 (≈ 67 µM) | MIC [20]: 16 µg/mL (≈ 33.5 µM); MIC [21]: 64 µg/mL (≈ 134 µM); MIC (Staphylococcus warneri): < 0.12 µg/mL
NC[C@@H]1O[C@H](O[C@H]2[C@@H](O)[C@H](O[C@@H]3[C@@H](O)[C@H](N)C[C@H](N)[C@H]3O[C@H]3O[C@H](CO)[C@@H](O)[C@H](O)[C@H]3N)O[C@@H]2CO)[C@H](N)[C@@H](O)[C@@H]1O [PAROMOMYCIN] | 3 (≈ 4.87 µM) | 1 (≈ 1.62 µM) |  |  |  |  |  |  |  |  |  |  |  |  |  |  |  |  |  |  | 
